Experimental data: US20200017496A1 (priority 2017, published 2020)

Test system: Escherichia coli (ECO) isolates
Test: MIC of compounds alone and combined with antibacterials, broth microdilution (CLSI)
Type: cell-based
Method in brief: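 Compound MIC, and antibacterial MIC at each fixed compound level, taken by visual inspection as lowest concentration stopping growth. Inoculum: log-phase bacteria, final 5·10^5 CFU/mL, cation-adjusted Mueller-Hinton broth; 16-20 h, 35° C, ambient air.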

For `C=CC1=C(C(=O)O)N2C(=O)[C@@H](NC(=O)/C(=N\OCC(=O)O)c3csc(N)n3)[C@H]2SC1` [FIX, Cefixime], the “MIC ATB in combination” value (ECO 5302, AF1 @ 8 μg/mL) was “<=0.25 μg/mL”, the “MIC ATB in combination” value (ECO 131119, AF1 @ 4 μg/mL) was “<=0.25 μg/mL” and the “MIC ATB in combination” value (ECO 131119, AF1 @ 8 μg/mL) was “<=0.25 μg/mL”. For the same compound, the “MIC ATB in combination” value (ECO 180070, AF1 @ 4 μg/mL) was “<=0.25 μg/mL”, the “MIC ATB in combination” value (ECO 180070, AF1 @ 8 μg/mL) was “<=0.25 μg/mL” and the “MIC ATB in combination” value (ECO 190314, AF1 @ 4 μg/mL) was “<=0.25 μg/mL”. The “MIC ATB in combination” value (ECO 190314, AF1 @ 8 μg/mL) was “<=0.25 μg/mL”, the “MIC ATB in combination” value (ECO 190317, AF1 @ 4 μg/mL) was “<=0.25 μg/mL” and the “MIC ATB in combination” value (ECO 190317, AF1 @ 8 μg/mL) was “<=0.25 μg/mL”. The “MIC ATB in combination” value (ECO 190457, AF1 @ 8 μg/mL) was 0.031 µg/mL, the “MIC ATB in combination” value (ECO 190549, AF1 @ 4 μg/mL) was “<=0.25 μg/mL” and the “MIC ATB in combination” value (ECO 190549, AF1 @ 8 μg/mL) was “<=0.25 μg/mL”. For the same compound, the “MIC ATB in combination” value (ECO 200159, AF1 @ 4 μg/mL) was “<=0.25 μg/mL”, the “MIC ATB in combination” value (ECO 200159, AF1 @ 8 μg/mL) was “<=0.25 μg/mL” and the “MIC ATB in combination” value (ECO 200259, AF1 @ 4 μg/mL) was “<=0.25 μg/mL”. The “MIC ATB in combination” value (ECO 200259, AF1 @ 8 μg/mL) was “<=0.25 μg/mL”, the “MIC ATB in combination” value (ECO 200344, AF1 @ 4 μg/mL) was “<=0.25 μg/mL” and the “MIC ATB in combination” value (ECO 200344, AF1 @ 8 μg/mL) was “<=0.25 μg/mL”. The “MIC ATB in combination” value (ECO 260096, AF1 @ 4 μg/mL) was “<=0.25 μg/mL”, the “MIC ATB in combination” value (ECO 260096, AF1 @ 8 μg/mL) was “<=0.25 μg/mL” and the “MIC ATB in combination” value (ECO 260304, AF1 @ 4 μg/mL) was “<=0.25 μg/mL”. The “MIC ATB in combination” value (ECO 260304, AF1 @ 8 μg/mL) was “<=0.25 μg/mL”, the “MIC ATB in combination” value (ECO 260508, AF1 @ 4 μg/mL) was “<=0.25 μg/mL” and the “MIC ATB in combination” value (ECO 260508, AF1 @ 8 μg/mL) was “<=0.25 μg/mL”. For the same compound, the “MIC ATB in combination” value (ECO RGN238, AF1 @ 4 μg/mL) was “<=0.25 μg/mL”, the “MIC ATB in combination” value (ECO RGN238, AF1 @ 8 μg/mL) was “<=0.25 μg/mL” and the “MIC ATB in combination” value (ECO UFR15, AF1 @ 4 μg/mL) was “<=0.25 μg/mL”. For the same compound, the “MIC ATB in combination” value (ECO UFR15, AF1 @ 8 μg/mL) was “<=0.25 μg/mL”, the “MIC ATB in combination” value (ECO UFR16, AF1 @ 4 μg/mL) was “<=0.25 μg/mL” and the “MIC ATB in combination” value (ECO UFR16, AF1 @ 8 μg/mL) was “<=0.25 μg/mL”. The “MIC ATB in combination” value (ECO UFR17, AF1 @ 8 μg/mL) was 16 µg/mL, the “MIC ATB in combination” value (ECO UFR18, AF1 @ 4 μg/mL) was 16 µg/mL and the “MIC ATB in combination” value (ECO UFR18, AF1 @ 8 μg/mL) was 0.5 µg/mL. The “MIC ATB in combination” value (ECO UFR19, AF1 @ 4 μg/mL) was 16 µg/mL, the “MIC ATB in combination” value (ECO UFR19, AF1 @ 8 μg/mL) was less than 0.25 µg/mL and the “MIC ATB in combination” value (ECO UFR20, AF1 @ 4 μg/mL) was 1 µg/mL. The “MIC ATB in combination” value (ECO UFR20, AF1 @ 8 μg/mL) was 1 µg/mL, the “MIC ATB in combination” value (ECO UFR61O, AF1 @ 4 μg/mL) was 0.25 µg/mL and the “MIC ATB in combination” value (ECO UFR62, AF1 @ 4 μg/mL) was “<=0.25 μg/mL”. The “MIC ATB in combination” value (ECO UFR62, AF1 @ 8 μg/mL) was “<=0.25 μg/mL”, the “MIC ATB in combination” value (ECO UFR74, AF1 @ 4 μg/mL) was 32 µg/mL and the “MIC ATB in combination” value (ECO UFR74, AF1 @ 8 μg/mL) was 1 µg/mL. For the same compound, the “MIC ATB in combination” value (ECO UFR86, AF1 @ 4 μg/mL) was 0.5 µg/mL, the “MIC ATB in combination” value (ECO UFR86, AF1 @ 8 μg/mL) was “<=0.25 μg/mL” and the “MIC ATB in combination” value (ECO UFR174, AF1 @ 4 μg/mL) was “<=0.25 μg/mL”. For the same compound, the “MIC ATB in combination” value (ECO UFR174, AF1 @ 8 μg/mL) was less than 0.25 µg/mL, the “MIC ATB in combination” value (ECO UFR175, AF1 @ 4 μg/mL) was “<=0.25 μg/mL” and the “MIC ATB in combination” value (ECO UFR175, AF1 @ 8 μg/mL) was “<=0.25 μg/mL”. For the same compound, the “MIC ATB in combination” value (ECO UFR176, AF1 @ 4 μg/mL) was “<=0.25 μg/mL”, the “MIC ATB in combination” value (ECO UFR176, AF1 @ 8 μg/mL) was “<=0.25 μg/mL” and the “MIC ATB in combination” value (ECO UFR184, AF1 @ 4 μg/mL) was 8 µg/mL. For the same compound, the “MIC ATB in combination” value (ECO UFR184, AF1 @ 8 μg/mL) was “<=0.25 μg/mL”, the “MIC ATB in combination” value (ECO UFR185, AF1 @ 4 μg/mL) was 4 µg/mL and the “MIC ATB in combination” value (ECO UFR185, AF1 @ 8 μg/mL) was less than 0.25 µg/mL. For the same compound, the “MIC ATB in combination” value (ECO UFR186, AF1 @ 4 μg/mL) was “<=0.25 μg/mL”, the “MIC ATB in combination” value (ECO UFR186, AF1 @ 8 μg/mL) was “<=0.25 μg/mL” and the “MIC ATB in combination” value (ECO UFR187, AF1 @ 4 μg/mL) was “<=0.25 μg/mL”. For the same compound, the “MIC ATB in combination” value (ECO UFR187, AF1 @ 8 μg/mL) was “<=0.25 μg/mL”, the “MIC ATB in combination” value (ECO UFR189, AF1 @ 4 μg/mL) was “<=0.25 μg/mL” and the “MIC ATB in combination” value (ECO UFR189, AF1 @ 8 μg/mL) was “<=0.25 μg/mL”. For the same compound, the “MIC ATB in combination” value (ECO UFR190, AF1 @ 4 μg/mL) was “<=0.25 μg/mL”, the “MIC ATB in combination” value (ECO UFR190, AF1 @ 8 μg/mL) was “<=0.25 μg/mL” and the “MIC ATB in combination” value (ECO UFR191, AF1 @ 4 μg/mL) was “<=0.25 μg/mL”. The “MIC ATB in combination” value (ECO UFR191, AF1 @ 8 μg/mL) was “<=0.25 μg/mL”, the “MIC ATB in combination” value (ECO UFR207, AF1 @ 4 μg/mL) was “<=0.25 μg/mL” and the “MIC ATB in combination” value (ECO UFR207, AF1 @ 8 μg/mL) was “<=0.25 μg/mL”. For the same compound, the “MIC ATB in combination” value (ECO UFR208, AF1 @ 4 μg/mL) was 64 µg/mL, the “MIC ATB in combination” value (ECO UFR208, AF1 @ 8 μg/mL) was 32 µg/mL and the “MIC ATB in combination” value (ECO UFR209, AF1 @ 8 μg/mL) was 0.063 µg/mL. For the same compound, the “MIC ATB in combination” value (ECO UFR210, AF1 @ 4 μg/mL) was “<=0.25 μg/mL”, the “MIC ATB in combination” value (ECO UFR210, AF1 @ 8 μg/mL) was “<=0.25 μg/mL” and the “MIC ATB in combination” value (ECO UFR211, AF1 @ 4 μg/mL) was “<=0.25 μg/mL”. For the same compound, the “MIC ATB in combination” value (ECO UFR211, AF1 @ 8 μg/mL) was “<=0.25 μg/mL”, the “MIC ATB in combination” value (ECO UFR212, AF1 @ 4 μg/mL) was 64 µg/mL and the “MIC ATB in combination” value (ECO UFR212, AF1 @ 8 μg/mL) was “<=0.25 μg/mL”. The “MIC ATB in combination” value (ECO UFR218, AF1 @ 4 μg/mL) was “<=0.25 μg/mL” and the “MIC ATB in combination” value (ECO UFR218, AF1 @ 8 μg/mL) was “<=0.25 μg/mL”.
